{"source": "patent US3979508A", "about": "“Compositions and methods therewith for penicillin hypersensitivity detection” (Kremers-Urban Company, priority 1975, dated 1976)", "test_system": "penicillin hypersensitivity (patients)", "experiment": "Comparison of skin tests with penicilloyl-poly-L-lysine and penicillin G (Table III)", "assay_type": "in vivo, human", "details": "1163 tested", "description": "One of the uses for the conjugates of this invention is in skin testing for penicillin hypersensitivity. The conjugated compositions are prepared for skin testing by first dissolving the composition in buffered isotonic solutions, having a pH in the range from 7 to 8. For example, the conjugates prepared above may be diluted with aqueous solutions 0.15 M NaCl in 0.01 M phosphate, pH 7.6. In addition, other physiological salt solutions may be used.\nIntradermal injections may be made of the foregoing solutions with a 26 guage needle, the volume injected may be generally about 0.01 to 0.03 cc. Alternatively, the conjugate may be applied by the scratch test technique. The development of a wheal at the injection site after about 20 minutes indicates a positive reaction, and penicillin hypersensitivity.\nPenicillin hypersensitivity tests carried out with the conjugate compositions of this invention reflect the numerous advantages of penicillin hypersensitivity determinations made with such compositions. […] In Table II the distribution of skin reactions is shown by history of penicillin therapy and hypersensitivity. […] (See column 2, for example, showing the percentages of patients tested who had […] skin test.)", "data": [{"substance": "penicilloyl-poly-L-lysine [PPL]", "values": [{"measurement": "POSITIVE SKIN TESTS %", "result": 17.9, "unit": "%"}, {"measurement": "Positive Skin Tests, Number of Patients", "result": 209}]}]}
